Reference: PubChem BioAssay AID2060889 (Molecular Pharmacology Branch, DTP, NCI, 2025)
pIC50: −log10 of the molar value.

Tested on: LG0567-F671-PDC complex spheroids viability
Experiment: Anticancer human tumor LG0567-F671-PDC patient-derived lung adenocarcinoma cell line growth inhibition [RAS]
Conditions: for pIC50: curve of first compound; for viability, T/C: stronger effect = lower value
Procedure, shortened: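 Multi-cell-type spheroids: tumor cells plus HUVEC endothelial cells and mesenchymal stem cells. RAS-pathway inhibitors were combined with targeted agents, each dosed in half-log steps down from clinical Cmax, or from 10 microM when Cmax was unknown.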

[1] = second compound 0.000949 µM, first compound 0.0316 µM
[2] = second compound 0.000949 µM, first compound 0.1 µM
[3] = second compound 0.000949 µM, first compound 0.316 µM
[4] = second compound 0.000949 µM, first compound 1 µM
[5] = second compound 0.003 µM, first compound 0.0316 µM
[6] = second compound 0.003 µM, first compound 0.1 µM
[7] = second compound 0.003 µM, first compound 0.316 µM
[8] = second compound 0.003 µM, first compound 1 µM
[9] = second compound 0.00949 µM, first compound 0.0316 µM
[10] = second compound 0.00949 µM, first compound 0.1 µM
[11] = second compound 0.00949 µM, first compound 0.316 µM
[12] = second compound 0.00949 µM, first compound 1 µM
[13] = second compound 0.03 µM, first compound 0.0316 µM
[14] = second compound 0.03 µM, first compound 0.1 µM
[15] = second compound 0.03 µM, first compound 0.316 µM
[16] = second compound 0.03 µM, first compound 1 µM
[17] = second compound 0.0949 µM, first compound 0.0316 µM
[18] = second compound 0.0949 µM, first compound 0.1 µM
[19] = second compound 0.0949 µM, first compound 0.316 µM
[20] = second compound 0.0949 µM, first compound 1 µM
[21] = second compound 0.3 µM, first compound 0.0316 µM
[22] = second compound 0.3 µM, first compound 0.1 µM
[23] = second compound 0.3 µM, first compound 0.316 µM
[24] = second compound 0.3 µM, first compound 1 µM
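Further: spheroids exposed to compound for seven days before readout.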
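Wherever pIC50 is given: luminescence signal used as a proxy for viable cells.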

In the case of `C=CC(=O)Nc1cc(Nc2nccc(-c3cn(C)c4ccccc34)n2)c(OC)cc1N(C)CCN(C)C` + C#Cc1c(F)ccc2cc(O)cc(-c3ncc4c(N5CC6CCC(C5)N6)nc(OCC56CCCN5CC(F)C6)nc4c3F)c12, the pIC50 (second compound 0.0316 µM) was 6.92, the pIC50 (second compound 0.1 µM) was 7.07 and the pIC50 (second compound 0.316 µM) was 8.09. For the same molecule, the pIC50 (second compound 1 µM) was > 8.50, the pIC50 (second compound 3.16 µM) was > 8.50 and the pIC50 (second compound 10 µM) was > 8.50. It also gave a viability, T/C (second compound 0.0316 µM, first compound 0.00316 µM) of 88.7%, a viability, T/C (second compound 0.0316 µM, first compound 0.01 µM) of 80.7% and a viability, T/C (second compound 0.0316 µM, first compound 0.0316 µM) of 67.4%. It also gave a viability, T/C (second compound 0.0316 µM, first compound 0.1 µM) of 54.1%, a viability, T/C (second compound 0.0316 µM, first compound 0.316 µM) of 34.5% and a viability, T/C (second compound 0.0316 µM, first compound 1 µM) of 19.1%. The viability, T/C (second compound 0.1 µM, first compound 0.00316 µM) was 79.8%, the viability, T/C (second compound 0.1 µM, first compound 0.01 µM) was 74.8% and the viability, T/C (second compound 0.1 µM, first compound 0.0316 µM) was 66.8%. The viability, T/C (second compound 0.1 µM, first compound 0.1 µM) was 47.1%, the viability, T/C (second compound 0.1 µM, first compound 0.316 µM) was 27% and the viability, T/C (second compound 0.1 µM, first compound 1 µM) was 16.2%. It also gave a viability, T/C (second compound 0.316 µM, first compound 0.00316 µM) of 53.4%, a viability, T/C (second compound 0.316 µM, first compound 0.01 µM) of 49.3% and a viability, T/C (second compound 0.316 µM, first compound 0.0316 µM) of 42.8%. It also gave a viability, T/C (second compound 0.316 µM, first compound 0.1 µM) of 28.4%, a viability, T/C (second compound 0.316 µM, first compound 0.316 µM) of 22.1% and a viability, T/C (second compound 0.316 µM, first compound 1 µM) of 11.3%. It also gave a viability, T/C (second compound 1 µM, first compound 0.00316 µM) of 38.1%, a viability, T/C (second compound 1 µM, first compound 0.01 µM) of 32.8% and a viability, T/C (second compound 1 µM, first compound 0.0316 µM) of 28.9%. It also gave a viability, T/C (second compound 1 µM, first compound 0.1 µM) of 20.4%, a viability, T/C (second compound 1 µM, first compound 0.316 µM) of 11.9% and a viability, T/C (second compound 1 µM, first compound 1 µM) of 6.5%. The viability, T/C (second compound 3.16 µM, first compound 0.00316 µM) was 20.5%, the viability, T/C (second compound 3.16 µM, first compound 0.01 µM) was 17% and the viability, T/C (second compound 3.16 µM, first compound 0.0316 µM) was 16.2%. It also gave a viability, T/C (second compound 3.16 µM, first compound 0.1 µM) of 12.2%, a viability, T/C (second compound 3.16 µM, first compound 0.316 µM) of 8.15% and a viability, T/C (second compound 3.16 µM, first compound 1 µM) of 4.09%. The viability, T/C (second compound 10 µM, first compound 0.00316 µM) was 13.5%, the viability, T/C (second compound 10 µM, first compound 0.01 µM) was 10.9% and the viability, T/C (second compound 10 µM, first compound 0.0316 µM) was 9.25%. The viability, T/C (second compound 10 µM, first compound 0.1 µM) was 6.54%, the viability, T/C (second compound 10 µM, first compound 0.316 µM) was 4.27% and the viability, T/C (second compound 10 µM, first compound 1 µM) was 2.83%.
With `CC(C)NCC(C(=O)N1CCN(c2ncnc3c2C(C)CC3O)CC1)c1ccc(Cl)cc1` (stereo unspecified) + CCn1c(-c2cccnc2C(C)OC)c2c3cc(ccc31)N1CCOC(CC(NC(=O)C(C(C)C)N(C)C(=O)C3(F)CCN(C(=O)C#CC(C)(C)N(C)C)CC3)C(=O)N3CCCC(N3)C(=O)OCC(C)(C)C2)C1 the pIC50 (second compound 0.000949 µM) was > 7.50, the pIC50 (second compound 0.003 µM) was > 7.50 and the pIC50 (second compound 0.00949 µM) was > 7.50. For the same molecule, the pIC50 (second compound 0.03 µM) was > 7.50, the pIC50 (second compound 0.0949 µM) was > 7.50 and the pIC50 (second compound 0.3 µM) was > 7.50. It also gave a viability, T/C [1] of 11.2%, a viability, T/C [2] of 13.7% and a viability, T/C [3] of 12.3%. For the same molecule, the viability, T/C [4] was 12.3%, the viability, T/C (second compound 0.000949 µM, first compound 3.16 µM) was 8.16% and the viability, T/C (second compound 0.000949 µM, first compound 10 µM) was 8.26%. The viability, T/C [5] was 12.4%, the viability, T/C [6] was 11.7% and the viability, T/C [7] was 11.7%. For the same molecule, the viability, T/C [8] was 10.8%, the viability, T/C (second compound 0.003 µM, first compound 3.16 µM) was 8.33% and the viability, T/C (second compound 0.003 µM, first compound 10 µM) was 7.72%. It also gave a viability, T/C [9] of 11%, a viability, T/C [10] of 11.3% and a viability, T/C [11] of 12.6%. It also gave a viability, T/C [12] of 10.1%, a viability, T/C (second compound 0.00949 µM, first compound 3.16 µM) of 8.54% and a viability, T/C (second compound 0.00949 µM, first compound 10 µM) of 7.28%. It also gave a viability, T/C [13] of 11.5%, a viability, T/C [14] of 10.2% and a viability, T/C [15] of 12.5%. The viability, T/C [16] was 8.64%, the viability, T/C (second compound 0.03 µM, first compound 3.16 µM) was 7.32% and the viability, T/C (second compound 0.03 µM, first compound 10 µM) was 7.5%. It also gave a viability, T/C [17] of 9.18%, a viability, T/C [18] of 10.3% and a viability, T/C [19] of 10.3%. It also gave a viability, T/C [20] of 8.97%, a viability, T/C (second compound 0.0949 µM, first compound 3.16 µM) of 6.83% and a viability, T/C (second compound 0.0949 µM, first compound 10 µM) of 6.43%. For the same molecule, the viability, T/C [21] was 8.3%, the viability, T/C [22] was 10.2% and the viability, T/C [23] was 8.96%. The viability, T/C [24] was 6.59%, the viability, T/C (second compound 0.3 µM, first compound 3.16 µM) was 6.6% and the viability, T/C (second compound 0.3 µM, first compound 10 µM) was 5.25%.
For `O=C(c1ccc(F)c(F)c1Nc1ccc(I)cc1F)N1CC(O)([C@@H]2CCCCN2)C1` + CCn1c(-c2cccnc2C(C)OC)c2c3cc(ccc31)N1CCOC(CC(NC(=O)C(C(C)C)N(C)C(=O)C3(F)CCN(C(=O)C#CC(C)(C)N(C)C)CC3)C(=O)N3CCCC(N3)C(=O)OCC(C)(C)C2)C1, the pIC50 (second compound 0.000949 µM) was > 8.50, the pIC50 (second compound 0.003 µM) was > 8.50 and the pIC50 (second compound 0.00949 µM) was > 8.50. For the same molecule, the pIC50 (second compound 0.03 µM) was > 8.50, the pIC50 (second compound 0.0949 µM) was > 8.50 and the pIC50 (second compound 0.3 µM) was > 8.50. It also gave a viability, T/C (second compound 0.000949 µM, first compound 0.00316 µM) of 13.4%, a viability, T/C (second compound 0.000949 µM, first compound 0.01 µM) of 11.5% and a viability, T/C [1] of 9.69%. The viability, T/C [2] was 6.79%, the viability, T/C [3] was 3.71% and the viability, T/C [4] was 1.41%. It also gave a viability, T/C (second compound 0.003 µM, first compound 0.00316 µM) of 12.6%, a viability, T/C (second compound 0.003 µM, first compound 0.01 µM) of 11.1% and a viability, T/C [5] of 9.13%. The viability, T/C [6] was 7.29%, the viability, T/C [7] was 3.35% and the viability, T/C [8] was 1.31%. It also gave a viability, T/C (second compound 0.00949 µM, first compound 0.00316 µM) of 13.7%, a viability, T/C (second compound 0.00949 µM, first compound 0.01 µM) of 11.1% and a viability, T/C [9] of 7.73%. The viability, T/C [10] was 7.78%, the viability, T/C [11] was 3.51% and the viability, T/C [12] was 1.48%. For the same molecule, the viability, T/C (second compound 0.03 µM, first compound 0.00316 µM) was 10.9%, the viability, T/C (second compound 0.03 µM, first compound 0.01 µM) was 10.1% and the viability, T/C [13] was 7.96%. It also gave a viability, T/C [14] of 5.76%, a viability, T/C [15] of 3.19% and a viability, T/C [16] of 1%. For the same molecule, the viability, T/C (second compound 0.0949 µM, first compound 0.00316 µM) was 8.93%, the viability, T/C (second compound 0.0949 µM, first compound 0.01 µM) was 7.87% and the viability, T/C [17] was 7.13%. For the same molecule, the viability, T/C [18] was 4.53%, the viability, T/C [19] was 2.24% and the viability, T/C [20] was 0.97%. For the same molecule, the viability, T/C (second compound 0.3 µM, first compound 0.00316 µM) was 7.33%, the viability, T/C (second compound 0.3 µM, first compound 0.01 µM) was 7.35% and the viability, T/C [21] was 5.27%. For the same molecule, the viability, T/C [22] was 3.14%, the viability, T/C [23] was 1.96% and the viability, T/C [24] was 0.65%.
